Where a SMILES comes first, the peptide text is derived from it.
Columns and labels:
thrombospondin-1 (Tsp-1) = assay: Tsp-1 activation in cultured cells by Western blot; format: cell-based; conditions: cyclic peptides, 4 micrograms/mL or 10 micrograms/mL, Western blot, FIG. 2
Method: Cells were cultured and contacted with 4 micrograms/mL or 10 micrograms/mL of each peptide and the level of thrombospondin-1 (Tsp-1) activation was measured by Western blot. Tsp-1 has been previously shown to be activated by Saposin A protein.

[1] = Stability in human plasma at 37° C., read out as Tsp-1 stimulation in WI-38 fibroblasts (ELISA); format: in vitro ADME; conditions: 24 hours
Method: The cyclic peptide DWLPK (SEQ ID NO: 1) was also tested for stability in human plasma compared to the linear peptide dWIP (SEQ ID NO: 5). Each peptide was incubated in human plasma at 37 degrees Celsius, for 2, 4, 8, or 24 hours.
Cyclization also has the effect of increasing the stability of peptides by forcing them into a conformation that is not recognized by most naturally occurring proteases (9, 10, 14-18). The stability of the cyclic peptide to the linear d-amino acid peptide in human plasma was compared.

[2] = test system: patient-derived ovarian cancer cells expressing luciferase; assay: Mouse model of ovarian cancer, luciferase tumor burden and histology; format: in vivo, mice; conditions: 10 mg/kg for 10 days
Method: Next the cyclic peptide DWLPK (SEQ ID NO: 1) was tested in a mouse model of ovarian cancer. For the ovarian cancer mouse model, 1 million patient-derived ovarian cancer cells expressing luciferase were injected intraperitoneally into mice. The tumor burden was measured in vivo using luciferase. Treatment with the cyclic peptide began after 40 days and was administered for 10 days at 10 mg/kg. After 10 days of treatment, the mice were euthanized and the tumor was analyzed histologically.

Tsp-1 = Tsp-1 stimulation in macrophages in mice; format: in vivo; conditions: FIG. 7, F4/80 macrophages
[3] = mouse, in vivo
[4] = test system: DSS-induced model of Crohn's Disease; assay: Dextran Sodium Sulfate (DSS)-induced model of Crohn's Disease; format: in vivo, mice
Method: A model of Crohn's disease was used to test the efficacy of the cyclic peptide DWLPK (SEQ ID NO: 1) for treating Crohn's disease. The cyclic peptide was tested in a Dextran Sodium Sulfate (DSS)-induced model of Crohn's Disease where DSS was given to the mice in their drinking water (3.5% weight:volume) for 7 days. In one group the mice were treated concurrently with the cyclic peptide and DSS, while the other group was treated with DSS alone.

[5] = test system: thrombospondin-1 (Tsp-1) in WI-38 lung fibroblasts; assay: Stimulation of Tsp-1 in WI-38 lung fibroblasts (western blot); format: cell-based
Excerpt: Identification of both a 4- and 5-amino acid peptide derived from the saposin A domain of Psap that was able to inhibit both a tail vein model of Lewis Lung Carcinoma metastasis and in an adjuvant model of breast cancer metastasis when administered systemically was previously described (3). The therapeutic efficacy of peptides is often limited by their stability, or resistance to degradation by proteases. […] The stability of the 4-amino acid Psap peptide by incorporating d-amino acids at different moieties was investigated. Two peptides with d-amino acids incorporated, in combination, at the first (aspartate) and third (leucine) or the second (tryptophan) and fourth (proline) residues were synthesized. The activity of these peptides along with the native 1-amino acid peptide in vitro by measuring their ability to stimulate thrombospondin-1 (Tsp-1) in WI-38 lung fibroblasts was tested.
While the results of the peptide treatment of the PDX model of ovarian cancer were very promising it was postulated that the stability and activity of the peptide could be increased even more. The peptide derived from Psap was located in a region of the protein that contained a 13-amino acid loop between two helices that was stabilized by a disulfide bond (3). As such a 5-amino acid peptide that was cyclized via backbone (N—C) cyclization was synthesized (FIG. 14A, cyclic DWLPK (SEQ ID NO: 1)). […]

DF14 cells = assay: DF14 PDX model of metastatic ovarian cancer, cyclic peptide for 10 days; format: in vivo, mice
Method: Based on these findings the efficacy of the cyclic peptide using the DF14 model was tested. In order to better study the effects of the peptide on the metastatic lesions mice were injected with 1×10^7 cells and allowed the luciferase signal to reach 9×10^9 RLU. The mice were treated with the cyclic peptide for only 10 days to ensure that there would be sufficient tumor tissue to analyze. […] The liver, spleen and omentum were analyzed of both the peptide and control treated mice by H&E, and IHC for Tsp-1, Gil and TUNEL. The metastatic lesions in the control treated mice were, on average, 2.3-fold larger than those in the peptide treated mice (FIG. 14E). […] Moreover, all of the lesions in the peptide treated mice contained a significant percentage of TUNEL positive cells, with an average of 40% TUNEL positive cells/lesion (FIGS. 14H and 14I). Conversely, control treated tumors contained, on average, only 1.4% TUNEL positive cells/lesion (FIGS. 14H and 14I).

[6] = Activity of cyclic versus linear peptide (FIG. 18)
pancreatic cancer = assay: Anti-tumor activity against pancreatic cancer (FIGS. 19 and 20); format: in vivo

## CC(C)C[C@@H]1NC(=O)[C@H](Cc2c[nH]c3ccccc23)NC(=O)[C@H](CC(=O)O)NC(=O)[C@H](CCCCN)NC(=O)[C@@H]2CCCN2C1=O [cyclic DWLPK] (cyclo(DWLPK))
thrombospondin-1 (Tsp-1)
  effectiveness at increasing the level of Tsp-1: most effective
[1]; 37 degrees Celsius, FIG. 3
  ability to activate Tsp-1 after incubation in human plasma: retained the ability to activate Tsp-1
[1]; 37° C., ELISA
  Tsp-1 stimulating activity retained after incubation in human plasma: greater than 70%
[2]
  size of treated tumors relative to untreated tumors by histology: < 25%
[2]; histology
  Tsp-1 expression in treated tumors: expressed Tsp-1
[2]; starting after 40 days, FIG. 6
  luciferase output (tumor burden): went down
Tsp-1
  Tsp-1 in macrophages in mice: stimulated Tsp-1 in macrophages
[3]
  toxicity to the liver or spleen by histology: did not cause any toxicity
[4]; DSS 3.5% in drinking water 7 days, peptide concurrently, FIG. 9
  inflammation (MPO enzymatic activity): significantly reduced inflammation
[4]; FIG. 10
  body weight loss versus DSS only: lost less weight
[4]; FIG. 11
  Tsp-1 stimulation in intestine: stimulate Tsp-1
  macrophage infiltration: inhibit macrophage infiltration
[5]
  Tsp-1 stimulation in vitro relative to d-amino acid linear peptide: 3 fold
DF14 cells; 10 days of treatment, on average
  size of metastatic lesions in control treated mice relative to peptide treated mice: 2.3 fold
DF14 cells; 10 days of treatment, control 1.4%
  TUNEL positive cells/lesion, average: 40%
DF14 cells; after 10 days of treatment, start at 9×10^9 RLU, 10 mg/kg QD
  average luciferase signal after treatment: 4×10^8 RLU
DF14 cells; all of the peptide treated tumors
  Tsp-1 staining of treated tumors (IHC): stained positive for Tsp-1
[6]
  activity relative to the linear peptide: approximately 2 fold
Pancreatic cancer; FIG. 19
  anti-tumor activity against pancreatic cancer: significant anti-tumor activity
Pancreatic cancer; FIG. 20
  effect on metastasis of pancreatic cancer: inhibits metastasis
  effect on metastatic pancreatic cancer: regresses metastatic pancreatic cancer
